In ChEMBL document CHEMBL4418278, “Serine racemase inhibitor” (2014):

Biological target: T1, Serine racemase (Homo sapiens) (UniProt Q9GZT4)
T1 sequence (whole entry): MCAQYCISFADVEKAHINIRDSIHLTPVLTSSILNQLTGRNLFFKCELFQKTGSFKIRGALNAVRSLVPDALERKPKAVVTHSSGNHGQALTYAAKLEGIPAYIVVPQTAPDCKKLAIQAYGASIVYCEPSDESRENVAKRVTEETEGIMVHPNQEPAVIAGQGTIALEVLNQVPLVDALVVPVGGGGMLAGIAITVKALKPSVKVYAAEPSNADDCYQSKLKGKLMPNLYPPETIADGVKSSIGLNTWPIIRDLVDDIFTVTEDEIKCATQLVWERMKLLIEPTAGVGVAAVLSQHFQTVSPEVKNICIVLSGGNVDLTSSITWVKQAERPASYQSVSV
Assay: Inhibition of recombinant human SRR expressed in Escherichia coli assessed as reduction in conversion of L-serine to D-serine at 1 mM incubated for => 8 hrs in presence of PLP and recombinant D-serine dehydratase 1 by spectrophotometry relative to control

| inhibition | SMILES |
| --- | --- |
| 54% | Cc1ccc(S(=O)(=O)Nc2ccccc2NC(=O)Nc2ccc(F)cc2)cc1 |
| 41% | O=C(Cc1ccccc1)NNC(=S)NC(=O)Cc1ccccc1 |
| 45% | Cc1cccc(CC(=O)NNC(=S)NC(=O)Cc2ccccc2)c1 |
| 33% | O=C(/C=C/c1c(F)cc(F)cc1F)NC(=S)NNC(=O)Cc1ccccc1 |
| 61% | COc1ccc(S(=O)(=O)NCCNC(=O)Nc2ccc(Cl)c(Cl)c2)cc1 |
| 52% | O=C(/C=C/c1cc(Br)cc(Br)c1)NC(=S)NNC(=O)c1cccs1 |
| 31% | COc1cccc(CC(=O)NNC(=S)NC(=O)/C=C/c2cc(Br)cc(Br)c2)c1 |
| 24% | Cc1ccc(/C=C/C(=O)NC(=S)NNC(=O)Cc2cccs2)cc1 |
| 24% | COc1cccc(OC)c1/C=C/C(=O)NC(=S)NNC(=O)Cc1ccccc1 |
| 86% | COCCCNC(=S)NCCNS(=O)(=O)c1ccc(C)cc1 |
| 79% | Cc1ccc(S(=O)(=O)NCCNC(=O)Nc2ccccc2)cc1 |
| 20% | O=C(/C=C/c1cc(Br)cc(Br)c1)NC(=S)NNC(=O)Cc1ccccc1 |
| 31% | O=C(/C=C/c1cc(Br)cc(Br)c1)NC(=S)NNC(=O)CCc1ccccc1 |
| 28% | O=C(/C=C/c1cc(Br)cc(Br)c1)NC(=S)NNC(=O)Cc1cccs1 |
| 55% | O=C(/C=C/c1ccc(-c2ccccc2)cc1)NC(=S)NNC(=O)Cc1cccs1 |
| 53% | O=C(COc1ccc(Br)cc1)NCC(=O)NC1CCCCC1 |
| 62% | COc1ccc(NC(=O)CNC(=O)COc2ccccc2)c(C)c1 |
| 31% | COc1cccc(OC)c1/C=C/C(=O)NC(=S)NNC(=O)c1cccs1 |
| 58% | Cc1ccc(S(=O)(=O)NCCNC(=S)Nc2ccccc2C)cc1 |
| 27% | COc1ccc(/C=C/C(=O)NC(=S)NNC(=O)Cc2cccs2)c(OC)c1 |
| 63% | COc1ccc(C)cc1NC(=S)NCCNS(=O)(=O)c1ccc(C)cc1 |
| 49% | O=C(/C=C/c1cc(Br)cc(Br)c1)NC(=S)NNC(=O)Cc1ccc(F)cc1 |
| 62% | Cc1ccc(S(=O)(=O)NCCNC(=O)NS(=O)(=O)c2ccccc2C)cc1 |
| 0% | O=C(Cc1ccc(F)cc1)NNC(=S)NC(=O)Cc1ccccc1 |

| inhibition | SMILES |
| --- | --- |
| 70% | O=C(CCc1ccccc1)NNC(=S)NC(=O)Cc1ccccc1 |
| 54 to 85% | O=C(O)CC(=O)O |
| 33% | O=C(/C=C/c1c(Cl)cc(Cl)cc1Cl)NC(=S)NNC(=O)Cc1cccs1 |
| 69% | Cc1ccc(S(=O)(=O)NCCNC(=S)Nc2ccccc2Cl)cc1 |
| 24% | Cc1cccc(CC(=O)NNC(=S)NC(=O)/C=C/c2cc(Br)cc(Br)c2)c1 |
| 61% | O=C(Cc1cccs1)NNC(=S)NC(=O)Cc1ccccc1 |
| 55% | O=C(NCCCNS(=O)(=O)c1ccc(Br)cc1)Nc1ccc(Cl)c(Cl)c1 |
| 49% | Cc1ccc(S(=O)(=O)Nc2ccccc2NC(=O)Nc2ccc(Cl)c(Cl)c2)cc1 |
| 76% | Cc1ccc(S(=O)(=O)NCCNC(=O)Nc2ccc(F)cc2)cc1 |
| 55% | COc1ccc(S(=O)(=O)NCCCNC(=O)Nc2ccc(Cl)c(Cl)c2)cc1 |
| 59% | Cc1ccc(S(=O)(=O)NCCNC(=O)Nc2ccc(Cl)cc2Cl)cc1 |
| 57% | Cc1ccc(S(=O)(=O)NCCNC(=O)Nc2ccc(Br)cc2Cl)cc1 |
| 52% | Cc1ccc(S(=O)(=O)NCCNC(=O)Nc2ccc(Cl)c(Cl)c2)cc1 |
| 31% | O=C(/C=C/c1cc(Br)cc(Br)c1)NC(=S)NNC(=O)c1ccccc1 |
| 23% | O=C(/C=C/c1ccc(Cl)cc1)NC(=S)NNC(=O)Cc1cccs1 |
| 74% | O=C(Cc1c(F)cccc1F)NNC(=S)NC(=O)Cc1ccccc1 |
| 67% | O=C(Cc1cc(F)cc(F)c1)NNC(=S)NC(=O)Cc1ccccc1 |
| 49% | O=C(NCCNS(=O)(=O)c1ccc(Br)cc1)Nc1ccc(Cl)c(Cl)c1 |
| 35% | O=C(/C=C/c1ccc([N+](=O)[O-])cc1)NC(=S)NNC(=O)Cc1cccs1 |
| 64% | COc1cccc(NC(=O)NCCNS(=O)(=O)c2ccc(C)cc2)c1 |
| 46% | O=C(/C=C/c1ccc(F)cc1)NC(=S)NNC(=O)c1cccs1 |
| 45% | O=C(/C=C/c1ccc(F)cc1)NC(=S)NNC(=O)Cc1ccccc1 |
| 44% | O=C(/C=C/c1ccc(C(F)(F)F)cc1)NC(=S)NNC(=O)Cc1cccs1 |
| 76% | COc1ccccc1NC(=S)NCCNS(=O)(=O)c1ccc(C)cc1 |

Biological target: T1, Serine racemase (Homo sapiens)
Assay: Inhibition of recombinant human SRR expressed in Escherichia coli assessed as reduction in conversion of L-serine to D-serine at 0.1 mM incubated for => 8 hrs in presence of PLP and recombinant D-serine dehydratase 1 by spectrophotometry relative to control

| inhibition | SMILES |
| --- | --- |
| 60% | Cc1ccc(S(=O)(=O)NCC(=O)NNC(=O)Cc2ccc(F)cc2)cc1 |
| 67% | O=C(Cc1ccc(F)cc1)NNC(=S)NC(=O)Cc1ccc(F)cc1 |
| 85% | C[C@@H](NC(=O)CNS(=O)(=O)Cc1ccccc1)c1ccccc1 |
| 52% | Cc1ccc(S(=O)(=O)NCC(=O)Nc2cccc(Br)c2)cc1 |
| 77% | O=C(CNS(=O)(=O)Cc1ccccc1)Nc1c(F)cccc1F |
| 67% | O=C(Cc1ccc(F)cc1)NNC(=S)NC(=O)CC1CCCCC1 |
| 63% | O=C(CNS(=O)(=O)Cc1ccccc1)Nc1cccc(Br)c1 |
| 65% | O=C(CNS(=O)(=O)Cc1ccccc1)OCc1ccccc1 |
| 60% | O=C(CNS(=O)(=O)c1ccc(Cl)cc1)Nc1ccccc1Br |
| 99% | O=C(COc1ccc(Br)cc1)NCC(=O)NC1CCCCC1 |
| 63% | Cc1ccc(/C=C/S(=O)(=O)NCC(=O)Nc2ccc(OCc3ccccc3)cc2)cc1 |
| 87% | COc1ccc(NC(=O)CNC(=O)COc2ccccc2)c(C)c1 |
| 84% | Cc1ccc(S(=O)(=O)NCC(=O)OCc2ccccc2)cc1 |
| 75% | Cc1ccc(S(=O)(=O)NCC(=O)NCc2ccc(Br)cc2)cc1 |
| 59% | COc1ccc(S(=O)(=O)NCC(=O)Nc2cccc(Br)c2)cc1 |
| 62% | Cc1ccc(S(=O)(=O)NCC(=O)Nc2cccc([N+](=O)[O-])c2)cc1 |
| 62 to 110% | O=C(O)CC(=O)O |
| 66% | O=C(Cc1ccc(F)cc1)NNC(=S)NC(=O)Cc1c(F)cccc1F |
| 56% | Cc1ccc(S(=O)(=O)NCC(=O)Nc2ccc(OCc3ccccc3)cc2)cc1 |
| 67% | Cc1ccc(S(=O)(=O)NCC(=O)NCc2ccc(Br)cc2F)cc1 |
| 86% | Cc1ccc(S(=O)(=O)NCC(=O)N[C@@H](C)c2ccccc2)cc1 |
